In patent publication US5627193A, “Quinoline-4-carbonylguanidine derivatives, process for producing the same and pharmaceutical preparations containing the compounds” (Mitsui Toatsu Chemicals, Inc., priority 1995, dated 1997):

Tests used:
[1] = molecular target: T1, NHE (Na^+ /H^+ exchanger) (Rattus norvegicus, UniProt P26431); assay: NHE inhibitory activity (recovery of the pH in cells after acid load, BCECF, rat mesenteric artery); type: cell-based; details: read-out: Percent NHE inhibition (%); for inhibition at 0.1 µM: Conc. 0.1 μM; for inhibition at 1 µM: Conc. 1 μM
T1 construct: A rat mesenteric artery was isolated; from tissue; host or cells: isolated rat mesenteric artery segments
T1 sequence (P26431 whole entry): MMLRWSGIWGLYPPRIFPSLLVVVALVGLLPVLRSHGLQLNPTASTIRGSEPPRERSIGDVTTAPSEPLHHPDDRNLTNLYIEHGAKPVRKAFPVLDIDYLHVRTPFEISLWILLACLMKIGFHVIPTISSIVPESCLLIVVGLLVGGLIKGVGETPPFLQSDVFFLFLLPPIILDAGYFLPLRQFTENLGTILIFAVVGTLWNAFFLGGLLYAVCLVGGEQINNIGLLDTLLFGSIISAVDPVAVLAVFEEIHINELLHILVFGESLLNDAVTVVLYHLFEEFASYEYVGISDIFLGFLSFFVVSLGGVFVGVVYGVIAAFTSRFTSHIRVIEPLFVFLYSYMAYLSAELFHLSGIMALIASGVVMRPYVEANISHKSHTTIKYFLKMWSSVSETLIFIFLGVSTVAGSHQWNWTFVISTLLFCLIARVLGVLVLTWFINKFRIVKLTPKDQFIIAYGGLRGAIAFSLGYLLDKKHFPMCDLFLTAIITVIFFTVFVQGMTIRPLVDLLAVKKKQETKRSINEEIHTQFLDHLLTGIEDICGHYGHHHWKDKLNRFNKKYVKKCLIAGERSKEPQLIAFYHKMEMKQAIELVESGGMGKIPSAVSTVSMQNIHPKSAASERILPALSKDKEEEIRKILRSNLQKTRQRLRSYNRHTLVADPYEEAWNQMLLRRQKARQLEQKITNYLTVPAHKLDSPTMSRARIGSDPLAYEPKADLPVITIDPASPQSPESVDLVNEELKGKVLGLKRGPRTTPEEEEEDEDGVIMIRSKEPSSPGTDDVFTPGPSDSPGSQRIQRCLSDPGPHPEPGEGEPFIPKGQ
T1 sequence (P61023 2-195 partner limits assumed): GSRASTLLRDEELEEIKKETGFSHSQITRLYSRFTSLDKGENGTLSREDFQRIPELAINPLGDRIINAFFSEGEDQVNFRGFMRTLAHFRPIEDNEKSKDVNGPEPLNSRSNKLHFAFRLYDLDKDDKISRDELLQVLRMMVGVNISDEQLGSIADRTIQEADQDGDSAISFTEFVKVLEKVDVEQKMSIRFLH
Description: The NHE inhibitory activity was measured by the following method using a pH in cells as an index.
A rat mesenteric artery was isolated, and was loaded with a pH-sensitive dye BCECF. Subsequently, the tissue segments were mounted in a bath of an intracellular ion concentration measurement device (CAF-110, manufactured by Japan Spectral Co., Ltd.). The pH in cells was measured in terms of a ratio of fluorescent intensities through 2-wavelength excitation of 495 nm (pH-sensitive wavelength)/450 nm (pH-non-sensitive wavelength).
The pH in cells was shifted into acid through pretreatment with 20 mM ammonium chloride to activate NHE. At this time, when Na^+ ions were absent in an external solution, the intracellular acidosis was maintained. When Na^+ ions were present in an external solution, the pH in cells was recovered to a control value. This recovery of the pH in cells was ascribable to the activation of NHE. The NHE inhibitory activity of the medication was examined depending on whether or not this recovery was suppressed. The percent NHE inhibition was calculated from a change in pH (ΔpH) measured by the above-mentioned method using the following formula.
Percent NHE inhibition (%)={1-ΔpH (in the presence of a medication)/ΔpH (in the absence of a medication)}×100
This test was conducted by the method of C. D. Foster et al. [Am. J. Physiol., 262, 31, H1651-H1655 (1992)]. For comparison, the test was conducted with respect to guanidinocarbonylisoquinoline derivatives described in JP A 6-211799 (Family: EP590455).

[2] = test system: rat; assay: Effect on ischemic arrhythmia in the rat (left coronary artery ligated for 30 minutes); type: in vivo; details: 1 mg/kg i.v., five minutes before the ligation; rats with arrhythmia / rats
Description: A rat was anesthetized with pentobarbital, and the left chest was opened under artificial respiration. Then, the left coronary artery was ligated for 30 minutes. The effect of the test compound on ischemic arrhythmia was examined. The test agent was administered intravenously (i.v.) five minutes before the ligation. The arrhythmias were evaluated according to the guidelines of the Lambeth conventions [Cardiovasc. Res., 22, 447-455 (1988)].

[3] = test system: cardiac hypertrophy; details: Circulation, 86 (Suppl. I) I-177 (1992); cited from earlier work
[4] = Toxicity test, mortality of mice after 24 hours; details: mouse, in vivo, iv, 100 mg/kg (i.v.), 3 mice
Description: The test compound was administered to a ddy-strain male mouse, and the toxicity was examined. The test compound was administered intravenously (i.v.) in a dose of 100 mg/kg, and the toxicity was evaluated in terms of mortality of mice after 24 hours of the administration (number of specimens: one group consisting of 3 mice).

Row | SMILES | inhibition at 0.1 µM [1] [%] | inhibition at 1 µM [1] [%] | Incidence of arrhythmia, VF (ventricular fibrillation) [2] | Incidence of arrhythmia, VT (ventricular tachycardia) [2] | suppression of cardiac hypertrophy [3] | mortality at 24 h [4] [%]
1 | NC(N)=NC(=O)c1cc(-c2ccc(F)cc2)nc2ccccc12 [Example 13, 2-(4'-fluorophenyl)quinoline-4-carbonylguanidine] | 14.4 | 39.8 |  |  |  | 
2 | NC(N)=NC(=O)c1cc(-c2ccccc2C(F)(F)F)nc2ccccc12 [Example 11, 2-(2'-trifluoromethylphenyl)quinoline-4-carbonylguanidine] | 22.7 | 46.1 |  |  |  | 
3 | NC(N)=NC(=O)c1cc(-c2cccc([N+](=O)[O-])c2)nc2ccccc12 [Example 19, 2-(3'-nitrophenyl)quinoline-4-carbonylguanidine] | 22.3 | 35.6 |  |  |  | 
4 | N=C(N)NC(=O)c1nc(Cl)c(N)nc1N [amiloride] |  |  |  |  | suppresses cardiac hypertrophy | 
5 | COc1ccc(OC)c2c(C(=O)N=C(N)N)cc(-c3ccccc3C)nc12 [Example 42, 2-(2'-methylphenyl)-5,8-dimethoxyquinoline-4-carbonylguanidine] | 72.7 | 89.1 | 0/4 | 2/4 |  | 0
6 | Cc1cccc(-c2cc(C(=O)N=C(N)N)c3ccccc3n2)c1 [Example 3, 2-(3'-methylphenyl)quinoline-4-carbonylguanidine] | 21.2 | 59.8 |  |  |  | 
7 | NC(N)=NC(=O)c1cc(-c2ccccc2Cl)nc2ccccc12 [Example 14, 2-(2'-chlorophenyl)quinoline-4-carbonylguanidine] | 28.8 | 34.3 |  |  |  | 
8 | CC(C)c1ccccc1-c1cc(C(=O)N=C(N)N)c2ccccc2n1 [Example 5, 2-(2'-isopropylphenyl)quinoline-4-carbonylguanidine] | 29.3 | 42.3 |  |  |  | 
9 | NC(N)=NC(=O)c1cc(-c2cccc(N)c2)nc2ccccc12 [Example 20, 2-(3'-aminophenyl)quinoline-4-carbonylguanidine] | 36.2 | 42.2 |  |  |  | 
10 | Cc1ccc2nc(-c3ccccc3)cc(C(=O)N=C(N)N)c2c1 [Example 22, 2-phenyl-6-methylquinoline-4-carbonylguanidine] | 28.9 | 57.9 |  |  |  | 
11 | NC(N)=NC(=O)c1cc(-c2ccccc2)nc2ccccc12 [Example 1, 2-phenylquinoline-4-carbonylguanidine] | 5.2 | 52.8 |  |  |  | 
12 | Cc1ccc(-c2cc(C(=O)N=C(N)N)c3ccccc3n2)cc1C [Example 7, 2-(3',4'-dimethylphenyl)quinoline-4-carbonylguanidine] | 33.1 | 38.8 |  |  |  | 
13 | Cc1cccc2c(C(=O)N=C(N)N)cc(-c3ccccc3)nc12 [Example 24, 2-phenyl-8-methylquinoline-4-carbonylguanidine] | 8.1 | 50 |  |  |  | 
14 | Cc1cc(C)c(-c2cc(C(=O)N=C(N)N)c3ccccc3n2)c(C)c1 [Example 8, 2-(2',4',6'-trimethylphenyl)quinoline-4-carbonylguanidine] | 23.7 | 36.3 |  |  |  | 
15 | Cc1c(-c2ccccc2)nc2ccccc2c1C(=O)N=C(N)N [Example 21, 2-phenyl-3-methylquinoline-4-carbonylguanidine] | 1.5 | 45 |  |  |  | 
16 | Cc1ccc(-c2cc(C(=O)N=C(N)N)c3ccccc3n2)cc1 [Example 2, 2-(4'-methylphenyl)quinoline-4-carbonylguanidine] | 10.6 | 41.4 |  |  |  | 
17 | Cc1ccc2c(C(=O)N=C(N)N)cc(-c3ccccc3)nc2c1 [Example 23, 2-phenyl-7-methylquinoline-4-carbonylguanidine] | 2.8 | 49.8 |  |  |  | 
18 | Cc1ccccc1-c1cc(C(=O)N=C(N)N)c2ccccc2n1 [Example 4, 2-(2'-methylphenyl)quinoline-4-carbonylguanidine] | 49.2 | 65.6 |  |  |  | 
19 | Cc1ccc(-c2cc(C(=O)N=C(N)N)c3ccccc3n2)c(C)c1 [Example 6, 2-(2',4'-dimethylphenyl)quinoline-4-carbonylguanidine] | 36.4 | 55.3 |  |  |  | 

More lines, main results first:

Row | inhibition at 0.1 µM [1] [%] | inhibition at 1 µM [1] [%] | SMILES | Incidence of arrhythmia, VF (ventricular fibrillation) [2] | Incidence of arrhythmia, VT (ventricular tachycardia) [2] | suppression of cardiac hypertrophy [3] | mortality at 24 h [4] [%]
20 | 53.2 | 69.9 | COc1cc(OC)c2c(C(=O)N=C(N)N)cc(-c3ccccc3)nc2c1 [Example 36, 2-phenyl-5,7-dimethoxyquinoline-4-carbonylguanidine] | 0/4 | 2/4 |  | 
21 | 3.4 | 41.5 | COc1cc2nc(-c3ccccc3C)cc(C(=O)N=C(N)N)c2cc1OC [Example 39, 2-(2'-methylphenyl)-6,7-dimethoxyquinoline-4-carbonylguanidine] |  |  |  | 
22 | 47.4 | 63.6 | COc1cccc2c(C(=O)N=C(N)N)cc(-c3ccccc3)nc12 [Example 35, 2-phenyl-8-methoxyquinoline-4-carbonylguanidine] |  |  |  | 
23 | 30.6 | 41.7 | NC(N)=NC(=O)c1cc(-c2ccccc2)nc2c(N)cccc12 [Example 48, 2-phenyl-8-aminoquinoline-4-carbonylguanidine] |  |  |  | 
24 | 28.6 | 35.7 | Cc1cc(Cl)cc2c(C(=O)N=C(N)N)cc(-c3ccccc3)nc12 [Example 32, 2-phenyl-6-chloro-8-methylquinoline-4-carbonylguanidine] |  |  |  | 
25 | 28.4 | 62.9 | COCCOc1cccc2c(C(=O)N=C(N)N)cc(-c3ccccc3)nc12 [Example 44, 2-phenyl-8-methoxyethyloxyquinoline-4-carbonylguanidine] |  |  |  | 
26 | 20.8 | 51.2 | CC(=O)Nc1cccc2c(C(=O)N=C(N)N)cc(-c3ccccc3)nc12 [Example 49, 2-phenyl-8-acetylaminoquinoline-4-carbonylguanidine] |  |  |  | 
27 | 28 | 37.6 | COc1ccc2c(C(=O)N=C(N)N)cc(-c3ccccc3C)nc2c1OC [Example 43, 2-(2'-methylphenyl)-7,8-dimethoxyquinoline-4-carbonylguanidine] |  |  |  | 
28 | 12 | 57 | NC(N)=NC(=O)c1cc(-c2ccccc2)nc2c(Cl)cccc12 [Example 31, 2-phenyl-8-chloroquinoline-4-carbonylguanidine] |  |  |  | 
29 | 0 | 38.6 | NC(N)=NC(=O)c1cc(-c2ccccc2)nc2ccc(Cl)cc12 [Example 29, 2-phenyl-6-chloroquinoline-4-carbonylguanidine] |  |  |  | 
30 | 35 | 46.5 | COCOc1ccc2c(C(=O)N=C(N)N)cc(-c3ccccc3C)nc2c1 [Example 45, 2-(2'-methylphenyl)-7-methoxymethyloxyquinoline-4-carbonylguanidine] |  |  |  | 
31 | 18.3 | 31 | COc1cc(OC)c2nc(-c3ccccc3)cc(C(=O)N=C(N)N)c2c1 [Example 40, 2-phenyl-6,8-dimethoxyquinoline-4-carbonylguanidine] |  |  |  | 
32 | 33.7 | 63.3 | NC(N)=NC(=O)c1cc(-c2ccccc2)nc2cccc(Cl)c12 [Example 28, 2-phenyl-5-chloroquinoline-4-carbonylguanidine] |  |  |  | 
33 | 46.2 | 66.2 | CS(=O)(=O)Nc1cccc2c(C(=O)N=C(N)N)cc(-c3ccccc3)nc12 [Example 50, 2-phenyl-8-methanesulfonylaminoquinoline-4-carbonylguanidine] |  |  |  | 
34 | 39.3 | 48.8 | Cc1ccccc1-c1cc(C(=O)N=C(N)N)c2ccc(O)cc2n1 [Example 46, 2-(2'-methylphenyl)-7-hydroxyquinoline-4-carbonylguanidine] |  |  |  | 
35 | 29.8 | 53 | COc1ccc2c(C(=O)N=C(N)N)cc(-c3ccccc3)nc2c1 [Example 34, 2-phenyl-7-methoxyquinoline-4-carbonylguanidine] |  |  |  | 
36 | 70.8 | 84.2 | COc1cc(OC)c2c(C(=O)N=C(N)N)cc(-c3ccccc3C)nc2c1 [Example 37, 2-(2'-methylphenyl)-5,7-dimethoxyquinoline-4-carbonylguanidine] | 0/5 | 3/5 |  | 
